Where two headings read alike, the source gives them in different places. Numbered stars: 1 amine (or outer) side, 2 acyl side, 3 side chain; on linkers, the order of the positions; unused ones are H or OH. Square brackets hold non-standard residues; d marks the D form. Peptide text beside a SMILES is read from it. * marks the point of attachment. X7 = C[C@@H](N*)[C@@H](OC(=O)OCc1cn(C2OC(C(=O)O)C(O)C(O)C2O)nn1)c1ccccc1; Dolaproine = CO[C@@H]([C@@H]1CCCN1)[C@@H](C)C(=O)O; X5 = C[C@@H](N[*:1])[C@@H](OC(=O)[*:2])c1ccccc1; X10 = COCCOC(=O)O[C@@H](c1ccccc1)[C@@H](C)N*; Dil = CC[C@H](C)[C@H](NC)[C@@H](CC(=O)O)OC; X3 = C[C@@H](N*)[C@@H](OP(=O)(O)O)c1ccccc1; X6 = O=C(O)C1OC(n2cc(CN*)nn2)C(O)C(O)C1O; NMeV = CN[C@H](C(=O)O)C(C)C; X8 = c1[nH]nnc1CN*
Biological target: T1, porcine tubulin (Sus scrofa, UniProt P02550+P02554)
T1 construct: purchased Cytoskeleton, Inc. BK011P
Assay: Tubulin polymerization inhibition test
Assay type: biochemical
Protocol: For measuring the tubulin polymerization inhibitory action, Tubulin Polymerization Assay Kit (manufactured by Cytoskeleton, Inc., BK011P) was used. A PIPES buffer containing porcine tubulin, GTP, MgCl2, EGTA, Glycerol, and a fluorescent reporter was prepared under ice-cooling as a reaction solution. The reaction solution was ice-cooled until it was used. A test compound solution was prepared by an aqueous solution containing 1.5% DMSO, and added to a 96 well plate (manufactured by Corning Inc., 3686) at 5 μL/well. The reaction solution was added thereto at 50 μL/well, the plate was placed in a microplate reader (FlexStation 3, manufactured by Molecular Device, LLC) in which the internal temperature was set to 37° C. in advance, and the fluorescence intensity measurement (excitation wavelength: 360 nm, detection wavelength: 420 nm) of each well was started. The fluorescence intensity was measured once every minute, and the measurement was continued for 60 minutes.
The tubulin polymerization inhibition rate (%) was calculated by the following equation.
[formula] • a: average amount of fluorescence intensity increase in vehicle-treated well (n=2) • b: average amount of fluorescence intensity increase in test compound-treated well (n=2)
Amount of fluorescence intensity increase: (average fluorescence intensity after 51 to 60 minutes from measurement start)−(average fluorescence intensity after 1 to 6 minutes from measurement start)

[1] = porcine tubulin, 37° C., fluorescence over 60 minutes, read-out: IC50 value (tubulin polymerization inhibition)

T1 sequence (P02550 whole entry): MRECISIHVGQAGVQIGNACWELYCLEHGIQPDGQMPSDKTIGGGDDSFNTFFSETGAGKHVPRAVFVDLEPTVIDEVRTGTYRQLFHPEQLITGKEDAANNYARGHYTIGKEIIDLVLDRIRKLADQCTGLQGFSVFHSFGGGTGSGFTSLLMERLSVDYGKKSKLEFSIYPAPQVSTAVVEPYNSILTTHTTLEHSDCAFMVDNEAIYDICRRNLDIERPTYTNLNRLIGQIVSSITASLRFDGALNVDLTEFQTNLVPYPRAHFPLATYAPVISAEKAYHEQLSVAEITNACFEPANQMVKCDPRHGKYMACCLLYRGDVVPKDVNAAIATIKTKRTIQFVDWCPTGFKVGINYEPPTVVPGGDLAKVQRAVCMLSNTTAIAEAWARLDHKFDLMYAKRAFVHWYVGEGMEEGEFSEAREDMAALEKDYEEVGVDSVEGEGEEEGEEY
T1 sequence (P02554 whole entry): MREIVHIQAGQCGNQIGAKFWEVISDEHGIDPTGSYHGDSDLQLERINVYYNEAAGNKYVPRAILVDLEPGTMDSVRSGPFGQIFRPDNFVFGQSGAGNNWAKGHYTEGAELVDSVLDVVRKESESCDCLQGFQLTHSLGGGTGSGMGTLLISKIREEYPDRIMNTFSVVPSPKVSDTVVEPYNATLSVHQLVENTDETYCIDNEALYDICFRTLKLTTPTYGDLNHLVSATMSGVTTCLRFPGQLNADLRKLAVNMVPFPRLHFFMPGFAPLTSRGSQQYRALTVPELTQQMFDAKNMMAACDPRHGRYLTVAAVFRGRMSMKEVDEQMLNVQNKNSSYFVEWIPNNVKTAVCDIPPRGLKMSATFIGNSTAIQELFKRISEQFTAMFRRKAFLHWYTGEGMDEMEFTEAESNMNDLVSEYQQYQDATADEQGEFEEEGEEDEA

Row | Compound | IC50 [1] | IC50
1 | CC[C@H](C)[C@@H]([C@@H](CC(=O)N1CCC[C@H]1[C@H](OC)[C@@H](C)C(=O)N[C@H](C)[C@@H](OC(=O)OCCOC)c1ccccc1)OC)N(C)C(=O)[C@@H](NC(=O)[C@@H](NC)C(C)C)C(C)C [Example U-012] (H-[NMeV]V[Dil][Dolaproine]-X10) | ≤ 3 µM | –
2 | CC[C@H](C)[C@@H]([C@@H](CC(=O)N1CCC[C@H]1[C@H](OC)[C@@H](C)C(=O)N[C@H](C)[C@@H](O)c1ccccc1)OC)N(C)C(=O)[C@@H](NC(=O)[C@H](C(C)C)N(C)CCONC)C(C)C [Example U-013] | ≤ 3 µM | –
3 | CC[C@H](C)[C@@H]([C@@H](CC(=O)N1CCC[C@H]1[C@H](OC)[C@@H](C)C(=O)N[C@H](C)[C@@H](OC(=O)NCCOCCOCCOCCOCCOCCOCCOCCOCCOCCOCCOCCOC)c1ccccc1)OC)N(C)C(=O)[C@@H](NC(=O)[C@@H](NC)C(C)C)C(C)C [Example U-015] | ≤ 3 µM | –
4 | CC[C@H](C)[C@@H]([C@@H](CC(=O)N1CCC[C@H]1[C@H](OC)[C@@H](C)C(=O)N[C@H](C)[C@@H](O)c1ccccc1)OC)N(C)C(=O)[C@@H](NC(=O)[C@H](C(C)C)N(C)CCc1ccc(N)cc1F)C(C)C [Example U-016] | ≤ 3 µM | –
5 | CC[C@H](C)[C@@H]([C@@H](CC(=O)N1CCC[C@H]1[C@H](OC)[C@@H](C)C(=O)N[C@H](C)[C@@H](O)c1ccccc1)OC)N(C)C(=O)[C@@H](NC(=O)[C@H](C(C)C)N(C)CCCC(=O)N[C@H]1CCc2c(C)c(F)cc3nc4c(c1c23)Cn1c-4cc2c(c1=O)COC(=O)[C@]2(O)CC)C(C)C [Example U-017] | – | ≤ 3 µM
6 | CC[C@H](C)[C@@H]([C@@H](CC(=O)N1CCC[C@H]1[C@H](OC)[C@@H](C)C(=O)N[C@H](C)[C@@H](OC(=O)NCc1cn(C2OC(C(=O)O)C(O)C(O)C2O)nn1)c1ccccc1)OC)N(C)C(=O)[C@@H](NC(=O)[C@@H](NC)C(C)C)C(C)C (stereo partly shown) [Example U-019] (H-[NMeV]V[Dil][Dolaproine][X5]-X6) | ≤ 3 µM | –
7 | CC[C@H](C)[C@@H]([C@@H](CC(=O)N1CCC[C@H]1[C@H](OC)[C@@H](C)C(=O)N[C@H](C)[C@@H](OC(=O)OCc1cn(C2OC(C(=O)O)C(O)C(O)C2O)nn1)c1ccccc1)OC)N(C)C(=O)[C@@H](NC(=O)[C@@H](NC)C(C)C)C(C)C (stereo partly shown) [Example U-020] (H-[NMeV]V[Dil][Dolaproine]-X7) | ≤ 3 µM | –
8 | CC[C@H](C)[C@@H]([C@@H](CC(=O)N1CCC[C@H]1[C@H](OC)[C@@H](C)C(=O)N[C@H](C)[C@@H](OC(=O)NCc1c[nH]nn1)c1ccccc1)OC)N(C)C(=O)[C@@H](NC(=O)[C@@H](NC)C(C)C)C(C)C [Example U-021] (H-[NMeV]V[Dil][Dolaproine][X5]-X8) | ≤ 3 µM | –
9 | CC[C@H](C)[C@@H]([C@@H](CC(=O)N1CCC[C@H]1[C@H](OC)[C@@H](C)C(=O)N[C@H](C)[C@@H](OP(=O)(O)O)c1ccccc1)OC)N(C)C(=O)[C@@H](NC(=O)[C@@H](NC)C(C)C)C(C)C [Example U-030] (H-[NMeV]V[Dil][Dolaproine]-X3) | ≤ 3 µM | –
10 | CC[C@H](C)[C@@H]([C@@H](CC(=O)N1CCC[C@H]1[C@H](OC)[C@@H](C)C(=O)N[C@H](C)[C@@H](OP(=O)(O)O)c1ccccc1)OC)N(C)C(=O)[C@@H](NC(=O)[C@H](C(C)C)N(C)C)C(C)C [Example U-031] | ≤ 3 µM | –

From patent publication US20250170267A1, “ANTIBODY-DRUG CONJUGATE PRECURSOR AND INTERMEDIATE FOR SYNTHESIS THEREOF” (UBE Corporation, priority 2022, published 2025)
